# In patent publication US5612174A, “Photographic yellow dye-forming couplers and silver halide color photographic materials containing the same” (Fuji Photo Film Co., Ltd., priority 1994, dated 1997):
# What was measured:
# [1] = Solubility of yellow couplers in 100 ml of ethyl acetate at 25° C.; type: physicochemical; settings: for Solubility: 25° C.; for solubility in ethyl acetate relative to RY-1 and RY-2: in words
# Experimental: Test for Solubility of Yellow Couplers in Organic Solvents:
# A test was conducted in order to determine what grams of the yellow coupler shown in Table A below are dissolved in 100 ml of ethyl acetate at 25° C. The yellow coupler was gradually added to 100 ml of ethyl acetate by 0.1 g at a time and stirred for 5 minutes, whereupon the amount not dissolved was referred to as a saturation point. The results are shown in Table A. As comparative couplers, used were the following RY-1 and RY-2. [drawing 15]
# Solubility of Couplers in 100 ml of
# Ethyl Acetate (at 25° C.)
# [2] = Solubility of yellow couplers in high boiling point organic solvents Solv-2, Solv-3 and Solv-9; type: physicochemical; settings: in words
# Experimental: The same test as above was conducted to determine the solubility of the yellow couplers in known high boiling point organic solvents Solv-2, Solv-3 and Solv-9 mentioned below.
Structure (SMILES),Solubility [1] [g/100 ml],solubility in ethyl acetate relative to RY-1 and RY-2 [1],solubility in known high boiling point organic solvents relative to RY-1 and RY-2 [2]
CCCCCCCCC=CCCCCCCCC(=O)Nc1ccc(Cl)c(NC(=O)C(C(=O)C(C)(C)C)N2C(=O)NC(C)(C)C2=O)c1 (centres unmarked) [Y-1],21.0,much larger solubility in ethyl acetate than the known yellow couplers of RY-1 and RY-2,much larger solubility in such solvents than the known yellow couplers of RY-1 and RY-2
"CCCCCCCCCCCCCCCCCC(=O)Nc1ccc(Cl)c(NC(=O)C(C(=O)C(C)(C)C)N2C(=O)NC(C)(C)C2=O)c1 (centres unmarked) [RY-2, reference compound]",8.5,,
"CCC(Oc1ccc(C(C)(C)CC)cc1C(C)(C)CC)C(=O)Nc1ccc(Cl)c(NC(=O)C(C(=O)C(C)(C)C)N2C(=O)NC(C)(C)C2=O)c1 (centres unmarked) [RY-1, reference compound]",15.8,,

# The next lines start with results.
Solubility [1] [g/100 ml],Structure (SMILES),solubility in ethyl acetate relative to RY-1 and RY-2 [1],solubility in known high boiling point organic solvents relative to RY-1 and RY-2 [2]
21.4,CCC=CCC=CCC=CCCCCCCCC(=O)Nc1ccc(Cl)c(NC(=O)C(C(=O)C(C)(C)C)N2C(=O)NC(C)(C)C2=O)c1 (centres unmarked) [Y-3],much larger solubility in ethyl acetate than the known yellow couplers of RY-1 and RY-2,much larger solubility in such solvents than the known yellow couplers of RY-1 and RY-2
21.2,CCCCCC=CCC=CCCCCCCCC(=O)Nc1ccc(Cl)c(NC(=O)C(C(=O)C(C)(C)C)N2C(=O)NC(C)(C)C2=O)c1 (centres unmarked) [Y-2],much larger solubility in ethyl acetate than the known yellow couplers of RY-1 and RY-2,much larger solubility in such solvents than the known yellow couplers of RY-1 and RY-2
20.8,CCCCCCCCC=CCCCCCCCC(=O)Nc1ccc(OC)c(NC(=O)C(C(=O)C(C)(C)C)N2C(=O)NC(C)(C)C2=O)c1 (centres unmarked) [Y-13],much larger solubility in ethyl acetate than the known yellow couplers of RY-1 and RY-2,much larger solubility in such solvents than the known yellow couplers of RY-1 and RY-2
